Measurements reported in patent US20250328351A1, “CARBONIC ANHYDRASE INHIBITORS AND ANTIBIOTICS AGAINST MULTIDRUG RESISTANT BACTERIA” (Purdue Research Foundation, priority 2018, published 2025).
≈ marks a conversion by molar mass, not a printed value.

Experiments:
[1] = system: Mutant-3 of Enterococcus fecalis NR 31975; assay: microbe, parasite or virus in culture; type: cell-based
[2] = system: VERO cells; assay: In vitro cytotoxicity, MTS assay; type: cell-based, monkey; conditions: concentration up to 128 μg/mL; two hours incubation
Protocol: Toxicity assessment: Compounds AS005H, AS005J, AS004B, AS005K, AS005A and 005D were assayed (at concentrations of 64 and 128 μg/mL) against a fibroblast-like monkey kidney cell line (VERO cell) to determine the potential toxic effect in vitro. Briefly, cells were cultured in Minimum Essential Medium (MEM) supplemented with 10% fetal bovine serum (FBS), 1 mM sodium pyruvate, and penicillin-streptomycin at 37° C. with CO2 (5%). Control cells received DMSO alone at a concentration equal to that in drug-treated cell samples. The cells were incubated with the compounds (in triplicate) in a 96-well plate at 37° C. with CO2 (5%) for two hours. The assay reagent MTS 3-(4,5-dimethylthiazol-2-yl)-5-(3-carboxymethoxyphenyl)-2-(4-sulfophenyl)-2H-tetrazolium) (Promega, Madison, WI, USA) was subsequently added and the plate was incubated for four hours. Absorbance readings (at OD490) were taken using a kinetic microplate reader (Molecular Devices, Sunnyvale, CA, USA). The quantity of viable cells after treatment with each compound was expressed as a percentage of the viability of DMSO-treated control cells (average of triplicate wells±standard deviation). The toxicity data was analyzed via a two-way ANOVA, with post hoc Dunnet's multiple comparisons test (P<0.05), utilizing GraphPad Prism 6.0 (GraphPad Software, La Jolla, CA).
(§1) Percent viable mammalian cells (measured as average absorbance ratio (test agent relative to DMSO) for cytotoxicity analysis of compounds AS005H, AS005J, AS004B, AS005K, AS005A and 005D (tested in triplicates) at 64 and 128 μg/mL against VERO cells using the MTS 3-(4,5-dimethylthiazol-2-yl)-5-(3-carboxymethoxyphenyl)-2-(4-sulfophenyl)-2H-tetrazolium) assay. Dimethyl sulfoxide (DMSO) was used as a negative control to determine a baseline measurement for the cytotoxic impact of each compound. The absorbance values represent an average of a minimum of three samples analyzed for each compound. Error bars represent standard deviation values for the absorbance values.

[3] = system: MRSA NRS 384 (MRSA USA300); assay: MIC, broth microdilution (CLSI); type: cell-based; conditions: Staphylococcus aureus; Table 2; TSB
Protocol: (§2) The minimum inhibitory concentrations (MICs) of the compounds and control drugs were determined using the broth microdilution method, according to guidelines outlined by the Clinical and Laboratory Standards Institute (CLSI)^1. Staphylococci strains were grown aerobically overnight on tryptone soya agar plates at 37° C., afterwards a bacterial solution equivalent to 0.5 McFarland standard was prepared and diluted in tryptone soy broth (TSB) to achieve a bacterial concentration of about 5×10^5 CFU/mL and seeded in 96-well well plates. Compounds and control drugs were added in the first row of the 96-well plates and serially diluted along the plates. Plates were then incubated aerobically at 37° C. for 18-20 hours. MICs reported in Table 2 are the minimum concentration of the compounds/control drugs that could inhibit completely the visual growth of the bacteria.

[4] = system: Staphylococcus epidermidis NRS 101; assay: MIC, broth microdilution (CLSI); type: cell-based; conditions: NRS101, Table 2, TSB
Protocol: as §2

[5] = system: Mutant-13 of Enterococcus fecalis NR 31975; assay: microbe, parasite or virus in culture; type: cell-based
[6] = system: Mutant-4 of Enterococcus fecalis NR 31975; assay: microbe, parasite or virus in culture; type: cell-based
[7] = system: Caco-2 cells; assay: In vitro cytotoxicity, MTS assay; conditions: concentration up to 128 μg/mL; two hours incubation
Protocol: Method: Compounds AS005H, AS005J, AS004B, AS005K, AS005A and 005D were assayed (at concentrations of 64 and 128 μg/mL) against a human colorectal adenocarcinoma (Caco-2) cell to determine the potential toxic effect to mammalian cells in vitro. Briefly, cells were cultured in Dulbecco's Modified Eagle Medium (DMEM) supplemented with 20% fetal bovine serum (FBS), non-essential amino acids (1×), penicillin-streptomycin at 37° C. with CO2 (5%). Control cells received DMSO alone at a concentration equal to that in drug-treated cell samples. The cells were incubated with the compounds (in triplicate) in a 96-well plate at 37° C. with CO2 (5%) for two hours. The assay reagent MTS 3-(4,5-dimethylthiazol-2-yl)-5-(3-carboxymethoxyphenyl)-2-(4-sulfophenyl)-2H-tetrazolium) (Promega, Madison, WI, USA) was subsequently added and the plate was incubated for four hours. Absorbance readings (at OD490) were taken using a kinetic microplate reader (Molecular Devices, Sunnyvale, CA, USA). The quantity of viable cells after treatment with each compound was expressed as a percentage of the viability of DMSO-treated control cells (average of triplicate wells±standard deviation). The toxicity data was analyzed via a two-way ANOVA, with post hoc Dunnet's multiple comparisons test (P<0.05), utilizing GraphPad Prism 6.0 (GraphPad Software, La Jolla, CA).
as §1, with “of” for “of compounds”, “005D compounds” for “005D”, “triplicate)” for “triplicates)”, “Caco-2” for “VERO”, “values. A two-way ANOVA, with post hoc Dunnet's multiple comparisons test, determined statistical difference (denoted by the asterisk) (P<0.05) between the values obtained for each compound and DMSO (negative control, used as solvent for the compounds).” for “values.”

[8] = system: Mutant-11 of Enterococcus fecalis NR 31975; assay: microbe, parasite or virus in culture; type: cell-based
[9] = system: Mutant-2 of Enterococcus fecalis NR 31975; assay: microbe, parasite or virus in culture; type: cell-based
[10] = system: Mutant-15 of Enterococcus fecalis NR 31975; assay: microbe, parasite or virus in culture; type: cell-based
[11] = system: Mutant-5 of Enterococcus fecalis NR 31975; assay: microbe, parasite or virus in culture; type: cell-based

CC(C)=CC(=O)Nc1nnc(S(N)(=O)=O)s1 [CAI0016, 3-Methyl-N-(5-sulfamoyl-1,3,4-thiadiazol-2-yl)but-2-enamide]
MIC [1]: 4 µg/mL (≈ 15.2 µM)
toxicity to VERO cells (percent viable cells, MTS) [2]: non-toxic
MIC [3]: > 64 µg/mL
MIC [4]: > 64 µg/mL
MIC [5]: 4 µg/mL (≈ 15.2 µM)
MIC [6]: 8 µg/mL (≈ 30.5 µM)
toxicity to Caco-2 cells (percent viable cells, MTS) [7]: non-toxic
MIC [8]: 4 µg/mL (≈ 15.2 µM)
MIC [9]: 8 µg/mL (≈ 30.5 µM)
MIC [10]: 8 µg/mL (≈ 30.5 µM)
MIC [11]: 4 µg/mL (≈ 15.2 µM)
